Measured values: patent US12241058B2, “Recombinant microbial system for directed evolution of glycocins and method of preparation thereof” (COUNCIL OF SCIENTIFIC & INDUSTRIAL RESEARCH, priority 2018, dated 2025)
No end group written: not given here. *: point of attachment. X1 = OC[C@H]1O[C@@H](O[C@H]2[C@H](O)[C@@H](O)[C@H](*)O[C@@H]2CO)[C@H](O)[C@@H](O)[C@@H]1O

Experiments:
human red blood cells = test: Hemolytic assay; assay type: cell-based
Description: Samples were prepared within 3 h of performing the assay. Neo-glycocins stock solutions of 1 mg/ml were prepared by dissolving the neo-glycocins in PBS (10 mM phosphate buffer, pH 7.4); the samples were mixed by inversion to ensure neo-glycocins were completely dissolved in PBS. To prepare the Human Red Blood Cell (hRBC) solution, blood was collected from healthy individual and RBCs were isolated following standard procedure. Informed consent was acquired from all donors and this work was carried out in compliance with the ethical committee guidelines of CSIR-IMTECH with IEC NO SUIEC/14/03.
2 ml whole blood from healthy individual was centrifuged for 30 mins at 1000 rpm(4° C.). Layer of RBCs was collected and diluted with equal volume of 1×PBS and mixture was centrifuged three times for 10 mins at 1000 rpm, 4° C. To prepare 4% RBC solution, 1 ml of RBC were mixed with 24 ml 1×PBS. To examine the hemolysis property of neo-glycocins (75-1000 μM), 20 μl of freshly prepared neo-glycocins solution was mixed with 180 μl of freshly prepared hRBC solution and was placed at 37° C. for 1 h. A total of 20 μl of PBS buffer only and 20 μl of Triton X-100 1% (w/v) were mixed with 180 μl of hRBC solution as negative and positive controls, respectively. After 1 h of incubation, all samples were centrifuged at 2500 rpm for 10 min. A total of 100 μl of supernatant was collected, and the release of hemoglobin was monitored by measuring the absorbance of the supernatant at 570 nm with a Multiskan Go plate-reader (Thermo Scientific). Hemolysis percentage for each sample was calculated by dividing sample's absorbance on positive control absorbance (complete hemolysis) multiplied by 100.

E. coli MTCC 1610 = test: Agar diffusion test (ADT) of cleaved neo-glycocins; assay type: cell-based
Description: (§1) FIG. 5B (d-i): Confirmation of antimicrobial activity of cleaved neo glycocins against bacterial strains namely L. monocytogenes EGDe (FIG. 5Bd-e): Vibrio cholera MTCC 3904 (FIG. 5Bf), E. coli 1610 (FIG. 5Bg), Bacillus lichenmformis MTCC 9857 (FIG. 5Bh) and Bacillus halodurans MTCC 7181 (FIG. 5Bi) using ADT;
Where in #1, f and g: cell lysate of cleavage buffer treated C13T, a variant of Enterocin 96 having SEQ ID NO: 10; #2, f and g: positive control parent peptide Enterocin 96 diglycosylated having SEQ ID NO: 9; #3, f and g: negative control/lysis buffer; #4.f and g: is negative control/cleavage buffer;
(§2) The cell lysate containing glycocins were directly subjected to agar diffusion test (ADT) using L. monocytogenes EGD-e. In ADT, the agar plates seeded with L. monocytogenes EGD-e (approximately 10^7 cells) were prepared. Approximately 100 μL lysate containing glycocin or its variants (neo-glycocin) (SEQ ID NO: 9, SEQ ID NO: 10 and SEQ ID NO: 11) were applied into the wells in the seeded plate followed by incubation of the plate at 4° C. for 1 h. Presence of inhibition zones around the wells was checked post overnight incubation of the plates at 37° C. The antimicrobial activities of the glycocin and neo-glycocin were determined by monitoring the zone of growth inhibition on the plates.

[1] = system: Bacillus licheniformis MTCC 9857; test: Agar diffusion test (ADT) of cleaved neo-glycocins; assay type: cell-based
Description: as §1
Wherein #1, h and i: cell lysate of cleavage buffer treated C13T, a variant of Enterocin 96 having SEQ ID NO: 10; #2, h and i: positive control parent peptide Enterocin 96 diglycosylated having SEQ ID NO: 9; #3, h and i: negative control/cleavage buffer; #4, h and i: is nisin (1 mg/ml).
as §2

L. monocytogenes EGD-e = test: Agar diffusion test (ADT) of cell lysates, zone of growth inhibition, with PAS staining for glycosylation; assay type: cell-based, Listeria monocytogenes; conditions: for Zone of inhibition as well as glycosylation positive: ADT against L. monocytogenes, cleavage buffer treated cell lysate, glycosylation by PAS staining
bacterial strains = test: Antimicrobial spectrum by ADT against bacterial strains; assay type: cell-based; conditions: FIG. 5B a-i
Description: as §1
Simultaneously, to check the change in spectrum of bioactivity of neo-glycocins, the agar plates of L. monocytogenes EGD-e seeded with approximately 10^7 bacterial cells were prepared. A 100 μL of cell lysate of mutants were added into the each well and then the plate was incubated at 4° C. for 1 h followed by overnight incubation at 37° C. The presence of inhibition zones around the wells was checked. The antimicrobial activity was determined by monitoring the zone of growth inhibition. […] The glycosylation status of the neo-glycocin produced from the selected mutant were analyzed using PAS staining and MALDI-TOF and LC-ESI-MS analysis as discussed below.

L. monocytogenes [2] = test: pH and heat stability, bioactivity verified using ADT assay; conditions: 121° C. for 15 minutes
HepG2 cells = test: Anti-cancer MTT reduction assay; assay type: cell-based
Description: (§3) Cytotoxicity of Enterocin 96 and its variants (neo-glycocins) against THP-1 cells and anti-cancer potential against HepG2 cells was measured by the conventional MTT reduction assay. HepG2 and THP-1 cells (1×10^4 cells/well) were seeded into the 96-well plate and cultured at 37° C. in an atmosphere of 5% CO2 to allow them to adhere overnight. After 24 hours, the cells were exposed to Enterocin 96 and its variants (neo-glycocins) at various concentrations (75-1000 μM) for 18-24 hours. After the incubation period, 150 μl media and the suspended cells were discarded and washed with 200 μl PBS. After that, 200 μl of fresh media was added followed by 20 μl of MTT (5 mg/mL) into each well in the 96-well plate and incubated for 4 h in CO2 incubator. One hundred and fifty microlitres of medium with MTT was removed from every well and 100 μl DMSO was added to each well to solubilize the formazan crystal by incubating for 20 min in CO2 incubator. Finally, the plates were read at 570 nm by using Multiskan Go plate-reader (Thermo Scientific) and then percentage of cell viability was determined.

THP-1 cells = test: Cytotoxicity MTT reduction assay; assay type: cell-based
Description: as §3

[3] = Cytotoxicity MTT reduction assay; assay type: cell-based; conditions: human; 50% cell death, THP-1 cells, MTT, 18-24 hours
Description: as §3

[4] = system: L. monocytogenes MTCC 839; test: Agar diffusion test (ADT) of cleaved neo-glycocins; assay type: cell-based, Listeria monocytogenes; conditions: L. monocytogenes MTCC 839, FIG. 5Bd-e
L. monocytogenes [5] = test: Determination of the MIC against L. monocytogenes (96-well broth dilution); assay type: cell-based, Listeria monocytogenes; conditions: Minimum Inhibitory Concentration against L. monocytogenes, 18 h at 37° C.
Description: One colony of an indicator strain (L. monocytogenes) was picked from an NB agar plate, inoculated to liquid NB medium and grown at 37° C., in a shaking incubator until OD^600 nm of 0.5 was reached. Then, the culture was diluted with NB medium and serial twofold dilutions with NB medium were made. Hundred microliters of Enterocin 96 solution (1 mg/ml in MQ) were transferred to a 96-well plate and mixed with 100 μl previously prepared cell suspension of sensitive strain. Similarly, positive control Nisin (1 mg/ml in MQ, Sigma Cat. # N5764), 100 μl mixture of NB medium with the Listeria, and negative controls (media alone, untreated indicator strain). 100 μL mixture of NB medium were prepared and dispersed in the same 96-well plates. The plate was incubated for 18 h at 37° C. in a shaking incubator. After incubation, the growth of bacteria was evaluated visually and by a plate reader. The analyses were performed in triplicate. Similarly, MIC of other variants of Enterocin 96 (neo-glycocins) was determined using above described method.

MASKRDCNLMKATCAGQAVTYAIHSLLNRLGGDS(X1)SDPAGCNDIVRKYCK (cysteines drawn unpaired) [SEQ ID NO: 10]
Hemolysis compared with Nisin and Enterocin 96 (human red blood cells; FIG. 6A): no significant change | Water solubility (Water solubility): water soluble | Bioactivity against Gram negative bacteria E. coli MTCC 1610 (E. coli MTCC 1610): observed | Bioactivity against Gram positive spore forming bacteria Bacillus licheniformis MTCC 9857 [1]: observed | Zone of inhibition as well as glycosylation positive (L. monocytogenes EGD-e): positive | Zone of inhibition as well as glycosylation positive (L. monocytogenes EGD-e; listed as C13T): Yes | Antimicrobial spectrum compared with native glycocin / Nisin and Enterocin 96 (bacterial strains): different antimicrobial spectrum | Antimicrobial spectrum compared with native glycocin / Nisin and Enterocin 96 (bacterial strains; listed as C13T): improved antibacterial spectrum | Bioactivity against L. monocytogenes post autoclaving (L. monocytogenes [2]): retain bioactivity | Cytotoxicity compared with Nisin and Enterocin 96 (HepG2 cells; HepG2, FIG. 6C): no significant change | Cytotoxicity compared with Nisin and Enterocin 96 (THP-1 cells; THP-1, FIG. 6B): no significant change | IC50 [3]: 248.6 ± 0.105 µM

MASKRDCNLMKACCAGQAVTYAIHSLLNRLGGDC(X1)SDPAGCNDIVRKYCK (cysteines drawn unpaired) [SEQ ID NO: 40]
Zone of inhibition as well as glycosylation positive (L. monocytogenes EGD-e): positive | Zone of inhibition as well as glycosylation positive (L. monocytogenes EGD-e; listed as S34C): Yes | Bioactivity compared with the parent peptide (L. monocytogenes EGD-e; ADT, L. monocytogenes EGDe, FIG. 5Bd-e): equally bioactive | Bioactivity compared with the parent peptide [4]: equally bioactive | IC50 [3]: 314.7 ± 0.18 µM

neo-glycocin with pediocin box (YYGNGV): MASKYYGNGVKRDCNLMKACCAGQAVTYAIHSLLNRLGGDSSDPAGCNDIVRKYCK (not fully specified; cysteine pairing not given here) [SEQ ID NO: 11]
Anti-bacterial activity (MIC in μM) (L. monocytogenes [5]): >0.54 µM | Hemolysis (MHC in μM) (human red blood cells): 600 µM | Zone of inhibition as well as glycosylation positive (L. monocytogenes EGD-e): positive | Zone of inhibition as well as glycosylation positive (L. monocytogenes EGD-e; listed as PedioEnt96): Yes | Activity against L. monocytogenes compared with diglycosylated glycocin (L. monocytogenes EGD-e; monoglycosylated length and glycan variant, strain not specified): as active as diglycosylated glycocin | Antimicrobial spectrum compared with native glycocin / Nisin and Enterocin 96 (bacterial strains): different antimicrobial spectrum | IC50 (HepG2 cells; 50% cell (cancerous) death, HepG2 cells, MTT, 18-24 hours): 192.1 ± 0.135 µM | IC50 (THP-1 cells; 50% cell death, THP-1 cells, MTT, 18-24 hours): 233.6 ± 0.132 µM

MASKRDCNLMKACCAGQAVTYAIHSLLNRLGGDS(X1)SDPAGCNDIVRKYCK (cysteines drawn unpaired) [SEQ ID NO: 9, Enterocin 96, reference compound]
Bioactivity against Gram negative bacteria E. coli MTCC 1610 (E. coli MTCC 1610): not | Bioactivity against Gram positive spore forming bacteria Bacillus licheniformis MTCC 9857 [1]: not | IC50 [3]: 194.1 ± 0.119 µM
